These results are taken from patent US7390817B2, “Combinations of a vanilloid antagonist and an NSAID for the treatment of pain” (Glaxo Group Limited, priority 2002, dated 2008).

The subject of the experiment is FCA-induced mechanical hypersensitivity. Description: Guinea Pig FCA Model (mechanical hyperalgesia, paw pressure). It is filed as in vivo. Conditions: male Dunkin-Hartley guinea-pigs, FCA intraplantar left paw, oral dosing 24 hours later, reading 1 hour after drug administration; Compound A 1.5 mg/kg, Compound B 1 mg/kg. As for the experimental part:
100 μl of 1 mg/ml FCA was injected intraplantar into the left paw of 6 groups of 6 male Dunkin-Hartley guinea-pigs (average weight 330 g) in order to induce inflammation and evoke a mechanical hypersensitivity (Ref. Stein, C., Millan, M. J., and Herz, A., Unilateral inflammation of the hind paw in rats as a model of prolonged noxious stimulation: alterations in behaviour and nociceptive thresholds, Pharmacol. Biochem. Behav., 31 (1988) 445-451). 24 hours later 1.5 mg/kg rofecoxib, 1 mg/kg N-(2-Bromophenyl)-N′-[((R)-1-(5-trifluoromethyl-2-pyridyl)pyrrolidin-3-yl)]urea and a combination of both was administered orally with the vehicle being 1% methylcellulose, the dosing volume being 2 ml/kg and dosing straight into the stomach. The methylcellulose was added gradually to the compound into the pestle and mortar and ground together. The mixtures were then sonnicated for 20 minutes. Behavioural readouts of mechanical hyperalgesia were obtained before FCA adminsitration (naive reading), after FCA but before drug administration (predose reading) and 1 hour after drug administration. […] The readout used was paw withdrawal in response to paw pressure (Ref. Randall L O, Selitto J J. (1957) A method for measurement of analgesic activity on inflammed tissue. Arch Int. Pharmacodyn 61, 409419.) and the end point was paw withdrawal. […]

Take `CS(=O)(=O)c1ccc(C2=C(c3ccccc3)C(=O)OC2)cc1` [Compound A, rofecoxib]: the “% reversal of mechanical hypersensitivity” value stood at 30.6%.

Consider `O=C(Nc1ccccc1Br)N[C@@H]1CCN(c2ccc(C(F)(F)F)cn2)C1` [Compound B, N-(2-Bromophenyl)-N′-[((R)-1-(5-trifluoromethyl-2-pyridyl)pyrrolidin-3-yl)]urea], for which the “% reversal of mechanical hypersensitivity” value stood at 32.5%.
